This is an account of results in PubChem BioAssay AID1645848.

≈ marks a conversion by molar mass, not a printed value. A value given as a limit tells only on which side of the number the result lay.

The conditions of the data set: buffer; pH 7.4; 6.0 h; 150.0 µM.
`COc1ccc(C(=O)NC2CCN(c3cnn(CC4CC4)c(=O)c3)CC2)c(OC)n1` showed a solubility (kinetic) of more than 41 µg/mL.
Under `Cc1ccc(S(=O)(=O)Nc2cnccc2C(=O)Nc2ccc(-c3nn[nH]n3)cc2)cc1` stands more than 64 µg/mL.
For the molecule `Cc1ccc(-c2cc(C(=O)Nc3ccc(S(C)(=O)=O)cc3)c3ccccc3n2)cc1C`, the solubility (kinetic) was less than 1 µg/mL.
As for `CN(C(=O)CSc1nc2c(c(=O)[nH]1)CCCC2)c1ccccc1`, the solubility (kinetic) is more than 49 µg/mL.
Molecule `COCCn1ccc2c(C3=CCOCC3)nc(-c3ccc4c(c3)CNC4=O)cc21` registered a kinetic solubility of more than 86 µg/mL.
Under `CCCCCN(CCC12CC3CC(CC(C3)C1)C2)C(=O)NCCCc1ccncc1` stands less than 1 µg/mL.
Under `Cc1ccc(NC(=O)N(Cc2cn(C)c3ccccc23)C2CCCCC2)cc1C` stands 2.37 µg/mL (≈ 6.08 µM); under `CC[C@@H](C)Nc1cc(C(=O)NC2CC3CCC(C2)N3c2ccc(C(=O)C3CC3)cn2)c(C)cc1C(N)=O` (stereo not given in full), less than 1 µg/mL.
For the molecule `CC(C)CC(C)NC(=O)c1noc(-c2ccc[nH]c2=O)n1` (stereo not given), the solubility (kinetic) was more than 43 µg/mL.
In turn, `O=C(NC1CCCc2c1[nH]c1c(Cl)cccc21)c1ccc2c(c1)OCO2` (stereo not given) displayed a solubility (kinetic) of less than 1 µg/mL.
As for `Brc1ccc(-c2csc(N3CCOCC3)n2)cc1`, the kinetic solubility was determined as 1.12 µg/mL (≈ 3.44 µM).
Take `Cc1ccc(C(=O)[C@H]2CC[C@@H](C(=O)Nc3ccc(S(=O)(=O)Nc4nccs4)cc3)C2)cc1C`: the kinetic solubility stood at 2.28 µg/mL (≈ 4.72 µM).
With `CCn1nnnc1Sc1ncnc2scc(-c3ccc(C)cc3)c12`, the kinetic solubility worked out at 3.32 µg/mL (≈ 9.35 µM).
Molecule `COc1ccc2c(ccn2CCC(=O)Nc2ccc3c(c2)C(=O)N2CCC[C@H]2C(=O)N3)c1` yielded a solubility (kinetic) of more than 43 µg/mL.
Under `Cc1cccc(-c2[nH]c(C(C)(C)C)nc2-c2ccc3nccnc3c2)n1` stands more than 51 µg/mL.
`Cc1ccnc(NC(=S)N2CCN(c3cccc(C(F)(F)F)c3)C[C@@H]2C)c1` came in with a kinetic solubility of 3.88 µg/mL (≈ 9.84 µM).
Molecule `CC[C@@]1(O)C(=O)OCc2c1cc1n(c2=O)Cc2c-1nc1cc(F)c(C)c3c1c2[C@@H](N)CC3` had a solubility (kinetic) of 31.9 µg/mL (≈ 73.3 µM). This solubility kinetic is about 8.2-fold higher than that of the molecule before.
On to `CS(=O)(=O)c1ccccc1-c1csc(N2CCC(C(N)=O)CC2)n1`, for which the kinetic solubility is more than 54 µg/mL.
In the case of `CC1=C(C(=O)NC2CCCC2)C(c2nn(C)cc2Cl)N=C(Nc2nc3ccccc3o2)N1` (stereo not given), the solubility (kinetic) is 10 µg/mL (≈ 22 µM).
As for `Cc1ccc(C(=O)N2CCc3sc(C(=O)NC(C)c4ccccc4)cc3C2)cc1` (stereo not given), the kinetic solubility was found to be 2.09 µg/mL (≈ 5.17 µM).
For the molecule `CCc1ccc(C(=O)Nc2cc(CN3CCN(C)CC3)cc(C(F)(F)F)c2)cc1C#Cc1cnc2ccnn2c1`, the kinetic solubility is less than 1 µg/mL.
The result for `COc1cc(C(=O)Nc2nc(-c3ccccc3)cs2)ccc1NS(=O)(=O)c1ccc(C)cc1` reads less than 1 µg/mL; that for `CCCCn1cnc2cc(NC(=O)c3cc(OC)c(OC)c(OC)c3)ccc21`, 48.1 µg/mL (≈ 125 µM).
As to `O=C(Cn1c2ncccc2c(=O)n1-c1ccccc1)Nc1ccc(Cl)cc1C(F)(F)F`, the kinetic solubility was less than 1 µg/mL.
Regarding `COc1ccc(C(=O)NC2CCCc3c2[nH]c2ccccc32)cc1OC` (stereo not given), the kinetic solubility stood at 4.79 µg/mL (≈ 13.7 µM).
`CCOC(=O)[C@H]1O[C@@H]1C(=O)N[C@@H](CC(C)C)C(=O)NCCC(C)C`: the solubility (kinetic) was 24 µg/mL (≈ 70.1 µM). Compared with the last molecule, the solubility kinetic is about 5-fold higher.
Turning to `COC(C)(C)CCn1nc(Nc2c(C)cccc2C)c2cnc(Nc3ccc(OCCN4CCCC4)c(F)c3)nc21`, the solubility (kinetic) was found to be 28.3 µg/mL (≈ 50.3 µM). This solubility kinetic and that of the molecule before are within 1.5-fold of each other.
The result for `O=C(Nc1nc(-c2ccccc2)cs1)c1ccccc1[N+](=O)[O-]` reads less than 1 µg/mL.
For the molecule `Cc1ccc(S(=O)(=O)Nc2cnccc2C(=O)Nc2nc(-c3nc4ccccc4s3)cs2)cc1`, the kinetic solubility was determined as 2.11 µg/mL (≈ 4.15 µM).
`CC[C@H]1/C=C\C=C/C[C@@H](C)[C@H](O)[C@@](C)(O)C(=O)[C@@H](C)[C@H](O)[C@@H](C)C(=O)[C@@H](C)[C@H](O)[C@@H](C)/C=C\C(=O)O[C@@H]2[C@H](C)[C@H](CC1)O[C@]1(CC[C@H](C)[C@H](C[C@@H](C)O)O1)[C@H]2C` yielded a kinetic solubility of less than 1 µg/mL.
The result for `CC1=C(C(=O)Nc2nncs2)C2(CCCC2)N=C(Nc2nc3ccccc3o2)N1` reads less than 1 µg/mL; that for `COC(=N)c1nc2ccc3ncnc(Nc4ccc(F)cc4Br)c3c2s1`, less than 1 µg/mL; that for `O=C1CCc2ccc(OCCCCN3CCN(c4cccc(Cl)c4Cl)CC3)cc2N1`, less than 1 µg/mL.
`CN1CCc2cc3c(cc2C1)OCO3`: the solubility (kinetic) is more than 28 µg/mL.
Molecule `Cc1nc(Nc2ncc(C(=O)Nc3c(C)cccc3Cl)s2)cc(N2CCN(CCO)CC2)n1` showed a kinetic solubility of 25.6 µg/mL (≈ 52.4 µM).
In the case of `COc1ccc(-c2ccc3nc(-c4cc(C)cc(C)c4)oc3c2)c(OC)c1OC`, the kinetic solubility is less than 1 µg/mL.
On to `Cc1ccc(S(=O)(=O)Nc2ccc(C(=O)Nc3nc(-c4ccc(Cl)cc4)cs3)cc2)cc1`, for which the solubility (kinetic) is less than 1 µg/mL.
Turning to `CC(C)(C)CN1CCNc2cc(Nc3ccccc3)ncc2C1`, the solubility (kinetic) came to 38.5 µg/mL (≈ 124 µM).
As to `Cn1ncnc1[C@H]1c2n[nH]c(=O)c3cc(F)cc(c23)N[C@@H]1c1ccc(F)cc1`, the kinetic solubility was more than 38 µg/mL.
With `CSc1ccccc1N1CCN(CCCCCC(=O)NC2CCCc3ccccc32)CC1` (stereo not given), the solubility (kinetic) stood at 44.7 µg/mL (≈ 99 µM).
In turn, `COc1ccc(-c2ccc3ncc(Nc4ccc(C(N)=O)cc4)n3n2)cc1OC` returned a solubility (kinetic) of 27.4 µg/mL (≈ 70.4 µM). Against the preceding molecule, the solubility kinetic is about 1.6-fold lower.
The result for `CCOC(=O)N1CCN(Cc2nc3cc(NC(=O)c4ccc(OC)cc4)ccc3n2C(C)C)CC1` reads 14.7 µg/mL (≈ 30.7 µM); that for `Cc1ccnc(NC(=S)N2CCN(c3cccc(Cl)c3Cl)CC2)c1`, 2.51 µg/mL (≈ 6.58 µM); that for `COc1ccc(C(=O)N[C@@H]2CCC[C@@H]2C(=O)N2CCC(Cc3ccccc3)CC2)cc1`, 17.9 µg/mL (≈ 42.6 µM).
Under `Cc1ccc(NC(=O)NCC2CCN(Cc3cccc(Cl)c3)CC2)cc1Cl` stands less than 1 µg/mL.
`COc1ccc(OC)c(-c2nnc3ccc(-c4ccc(OC)c(O[C@@H]5CCOC5)c4)nn23)c1` returned a solubility (kinetic) of more than 66 µg/mL.
Molecule `CCC(=O)N1CCN(c2ccc(-n3c(=O)ccc4cnc5ccc(-c6cnc7ccccc7c6)cc5c43)cc2C(F)(F)F)CC1` registered a solubility (kinetic) of less than 1 µg/mL.
Regarding `Fc1ccc(-c2ccc(Nc3nc(-c4ccncc4)nc4ccccc34)cc2F)cc1`, the kinetic solubility is less than 1 µg/mL.
`Cc1ccc(S(=O)(=O)Nc2cnccc2C(=O)Nc2nc(-c3cccnc3)cs2)cc1` yielded a solubility (kinetic) of more than 67 µg/mL.
Molecule `CC1(COc2ccc3c(c2)ncn3-c2ccc3cccc(N4CCC(N)CC4)c3n2)COC1` yielded a kinetic solubility of 36.8 µg/mL (≈ 82.9 µM).
`O=C(Nc1ccccc1F)c1nc(S(=O)(=O)Cc2ccccc2F)ncc1Cl` had a solubility (kinetic) of 3.63 µg/mL (≈ 8.57 µM).
Consider `Oc1ccc(CNc2ccccc2Br)c2cccnc12`, for which the kinetic solubility worked out at 8.3 µg/mL (≈ 25.2 µM).
The molecule `Cc1cnc(-c2ccccc2C(F)F)nc1NCC1CN(c2cnccn2)C1` showed a kinetic solubility of more than 56 µg/mL.
`Cc1cc(NS(=O)(=O)c2ccc(NC(=O)Cc3ccc(F)c(Cl)c3)cc2)no1` gave a kinetic solubility of more than 63 µg/mL.
In turn, `Cc1ccc(-c2ccc(CNc3nc(-c4ccccc4C(C)C)nc4ccccc34)cc2)cn1` came in with a kinetic solubility of less than 1 µg/mL.
Molecule `Cc1ccc(-c2nc3ccccc3o2)cc1NC(=O)COc1ccccc1` gave a solubility (kinetic) of less than 1 µg/mL.
`O=C(Cc1ccc(Cl)c(Cl)c1)Nc1ccc(S(=O)(=O)Nc2ccccc2)cc1` displayed a solubility (kinetic) of less than 1 µg/mL.
The molecule `O=C(O)Cc1ccc2oc(-c3ccc(NC(=O)/C=C/c4ccc(Br)cc4)c(F)c3)nc2c1` returned a solubility (kinetic) of less than 1 µg/mL.
Consider `CC(C)CS(=O)(=O)c1oc(-c2ccc(F)cc2)nc1S(=O)(=O)c1ccccc1`, for which the solubility (kinetic) was less than 1 µg/mL.
`CCOc1ccc(C2C(C(=O)Nc3ccccc3OC)=C(C)Nc3c(C(=O)Nc4cccc(C)c4)cnn32)cc1` (stereo not given): the solubility (kinetic) is less than 1 µg/mL.

For orientation: solubility (kinetic) means the concentration staying in solution when a stock, usually in DMSO, is diluted into the medium.
